# Laboratory results published in EP1222194B1, “7-ACYLAMINO-3-HETEROARYLTHIO-3-CEPHEM CARBOXYLIC ACID ANTIBIOTICS AND PRODRUGS THEREOF” (priority 1999, dated 2001).
# Tested on: S. aureus ATCC 13709 (Smith diffuse)
# Experiment: Murine model for lethal bacteremic peritonitis (septicemia)
# Format: in vivo, mice
# Conditions: Dose 5 mg/kg, subcutaneously at 0 and 2 hrs post-challenge
# Procedure: 10 mice/group were injected intraperitoneally with 2.98x10^7 cfu S. aureus ATCC 13709 (Smith diffuse) and treated at 0 and 2hrs post-challenge with serial two-fold doses of new cephalosporin antibiotic, imipenem and vancomycin subcutaneously in order to determine the ED50. Male Swiss-Webster mice weighing originally 24.2 - 26.1 g were obtained from Charles Rivers Labs, Hollister, CA. Mice were housed 10 per cage and given free access to water and mouse chow.
# Staphylococcus aureus ATCC 13709 (Smith diffuse) was grown overnight at 37 °C in Brain-heart Infusion broth (BHIB). The following morning, it was subcultured to fresh BHIB and incubated for 4-5h at 37 °C. The log-phase growth cells were washed once with physiological saline and adjusted to the desired concentration by correlation of absorbency at OD 600 nm with predetermined plate counts (NCCLS, 1994). The cell suspension was mixed with an equal volume of sterile 14% hog-gastric mucin (2). Inoculum was kept in an ice bath until used (<1h).
# Mice were challenged via an injection of 0.5 mL bacterial suspension intraperitoneally. The bacterial challenge was 2.98 x 10^7 cfu/mouse.
# Imipenem (Primaxin IV; Lot 7294A), vancomycin (Vancocin; Lot 8MU60W), and new cephalosporin antibiotic were prepared by serial two-fold dilutions to concentrations of 0.078 - 0.005 mg/mL, 1.2 - 0.075 mg/mL, 0.3 - 0.02 mg/mL, 0.3 - 0.02 mg/mL and 0.3 - 0.02 mg/mL respectively in sterile water (1). All antibiotics were administered subcutaneously in 0.1 mL volumes at 0 and 2 hours post-challenge. Concentrations of all compounds are based on the weight of the bioactive ingredients.
# The 50% effective dose (ED50) was calculated by the probit method (3) utilizing a program entitled Probit (Nycomed-Salutar).
smiles,measurement,value
"NCCSCc1ccncc1SC1=C(C(=O)O)N2C(=O)[C@@H](NC(=O)/C(=N\O)c3nc(N)sc3Cl)[C@H]2SC1 [Cmpd 3, (7R)-7-[(Z)-2-(2-amino-5-chlorothiazol-4-yl)-2-(hydroxyimino)acetamido]-3-[4-(2-aminoethylthiomethyl)pyrid-3-ylthio]-3-cephem-4-carboxylic acid]",Efficacy in murine septicemia %survival,5/80%
